{"source": "patent US7235580B2", "about": "“Mitotic kinesin inhibitors” (Merck & Co., Inc., priority 2002, dated 2007)"}
{"target": "T1, human KSP motor domain (KSP(367H)) (Homo sapiens, UniProt P52732)", "T1 construct": "were used to amplify the motor domain and the neck linker region; made in house; host or cells: E. coli BL21 (DE3), pRSETa", "T1 sequence (P52732 18-359 limits assumed)": "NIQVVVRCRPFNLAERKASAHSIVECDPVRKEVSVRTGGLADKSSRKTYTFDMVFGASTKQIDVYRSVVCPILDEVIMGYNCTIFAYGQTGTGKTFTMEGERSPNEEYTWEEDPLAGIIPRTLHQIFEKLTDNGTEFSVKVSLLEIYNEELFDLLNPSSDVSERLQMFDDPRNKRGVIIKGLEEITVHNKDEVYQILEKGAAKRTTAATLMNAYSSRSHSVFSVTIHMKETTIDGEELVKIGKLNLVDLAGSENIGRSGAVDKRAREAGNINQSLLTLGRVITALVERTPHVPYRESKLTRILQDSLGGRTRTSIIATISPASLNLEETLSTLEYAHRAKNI", "assay": "Kinesin ATPase In Vitro Assay", "assay_type": "biochemical", "details": "kinesin motor domain with microtubules, 1 mM ATP, 23° C.; free phosphate by quinaldine red/ammonium molybdate", "from_the_text": "I. Kinesin ATPase In Vitro Assay\nCloning and Expression of Human Poly-histidine Tagged KSP Motor Domain (KSP(367H))\nPlasmids for the expression of the human KSP motor domain construct were cloned by PCR using a pBluescript full length human KSP construct (Blangy et al., Cell, vol. 83, pp 1159-1169, 1995) as a template. The N-terminal primer 5′-[…] (SEQ.ID.NO.: 1) and the C-terminal primer 5′-[…] […] (SEQ.ID.NO.: 2) were used to amplify the motor domain and the neck linker region. The PCR products were digested with AseI and XhoI, ligated into the NdeI/XhoI digestion product of pRSETa (Invitrogen) and transformed into E. coli BL21 (DE3).\nCells were grown at 37° C. to an OD600 of 0.5. After cooling the culture to room temperature expression of KSP was induced with 100 μM IPTG and incubation was continued overnight. Cells were pelleted by centrifugation and washed once with ice-cold PBS. Pellets were flash-frozen and stored −80° C.\nCell pellets were thawed on ice and resuspended in lysis buffer (50 mM K-HEPES, pH 8.0, 250 mM KCl, 0.1% Tween, 10 mM imidazole, 0.5 mM Mg-ATP, 1 mM PMSF, 2 mM benzimidine, 1× complete protease inhibitor cocktail (Roche)). Cell suspensions were incubated with 1 mg/ml lysozyme and 5 mM β-mercaptoethanol on ice for 10 minutes, followed by sonication (3×30 sec). All subsequent procedures were performed at 4° C. Lysates were centrifuged at 40,000×g for 40 minutes. Supernatants were diluted and loaded onto an SP Sepharose column (Pharmacia, 5 ml cartridge) in buffer A (50 mM K-HEPES, pH 6.8, 1 mM MgCl2, 1 mM EGTA, 10 μM Mg-ATP, 1 mM DTT) and eluted with a 0 to 750 mM KCl gradient in buffer A. Fractions containing KSP were pooled and incubated with Ni-NTA resin (Qiagen) for one hour. The resin was washed three times with buffer B (Lysis buffer minus PMSP and protease inhibitor cocktail), followed by three 15-minute incubations and washes with buffer B. Finally, the resin was incubated and washed for 15 minutes three times with buffer C (same as buffer B except for pH 6.0) and poured into a column. KSP was eluted with elution buffer (identical to buffer B except for 150 mM KCl and 250 mM imidazole). KSP-containing fractions were pooled, made 10% in sucrose, and stored at −80° C.\nMicrotubules are prepared from tubulin isolated from bovine brain. Purified tubulin (>97% MAP-free) at 1 mg/ml is polymerized at 37° C. in the presence of 10 μM paclitaxel, 1 mM DTT, 1 mM GTP in BRB80 buffer (80 mM K-PIPES, 1 mM EGTA, 1 mM MgCl2 at pH 6.8). The resulting microtubules are separated from non-polymerized tubulin by ultracentrifugation and removal of the supernatant. The pellet, containing the microtubules, is gently resuspended in 10 μM paclitaxel, 1 mM DTT, 50 μg/ml ampicillin, and 5 μg/ml chloramphenicol in BRB80.\nThe kinesin motor domain is incubated with microtubules, 1 mM ATP (1:1 MgCl2: Na-ATP), and compound at 23° C. in buffer containing 80 mM K-HEPES (pH 7.0), 1 mM EGTA, 1 mM DTT, 1 mM MgCl2, and 50 mM KCl. The reaction is terminated by a 2-10 fold dilution with a final buffer composition of 80 mM HEPES and 50 mM EDTA. Free phosphate from the ATP hydrolysis reaction is measured via a quinaldine red/ammonium molybdate assay by adding 150 μl of quench C buffer containing a 2:1 ratio of quench A:quench B. Quench A contains 0.1 mg/ml quinaldine red and 0.14% polyvinyl alcohol; quench B contains 12.3 mM ammonium molybdate tetrahydrate in 1.15 M sulfuric acid. The reaction is incubated for 10 minutes at 23° C., and the absorbance of the phospho-molybdate complex is measured at 540 nm.", "units": {"IC50": "µM"}}
{"smiles": "CN(C)CCNCC1(c2ccccc2)C=C(c2cc(F)ccc2F)CN1C(=O)N(C)C", "note": "(stereo not drawn) [Compound 3-2, 4-(2,5-Difluorophenyl)-2-({[2-(dimethylamino)ethyl]amino}methyl)-N,N-dimethyl-2-phenyl-2,5-dihydro-1H-pyrrole-1-carboxamide]", "IC50": "≤ 50"}
{"smiles": "CN(C)CC(=O)N1CCC(N(C)C(=O)N2CC(c3cc(F)ccc3F)=CC2(CO)c2ccccc2)CC1", "note": "(stereo not drawn) [Compound 7-3, 4-(2,5-difluorophenyl)-N-[1-(N,N-dimethylglycyl)piperidin-4-yl]-2-(hydroxymethyl)-N-methyl-2-phenyl-2,5-dihydro-1H-pyrrole-1-carboxamide]", "IC50": "≤ 50"}
{"smiles": "COC(=O)NCCCC1(c2ccccc2)C=C(c2cc(Cl)ccc2F)CN1C(=O)N(C)C", "note": "(stereo not drawn) [Compound 22-1, methyl 3-{4-(5-chloro-2-fluorophenyl)-1-[(dimethylamino)carbonyl]-2-phenyl-2,5-dihydro-1H-pyrrol-2-yl}propylcarbamate]", "IC50": "≤ 50"}
